Assays:
pigs = details: phosphorus digestibility, Veevoedertabel 2000; cited from earlier work
[1] = Phosphorus solubility in water (Quimociac method); assay type: physicochemical; details: tricalcium phosphate experiment, absolute content
Experimental: (§1) At room temperature, 3 g sample and 300 ml distilled water have been agitated for 30 min. Subsequently the solution has been diluted to 500 ml and stirred. Then the solution has been filtered to remove the remaining solids. The Ca^2+ content of the solution was determined flame photometrically by means of ICP, and the amount of dissolved phosphorus was determined by the Quimociac method. These two methods are well known in the technical field.

[2] = Calcium solubility in water (ICP); assay type: physicochemical; details: tricalcium phosphate experiment, absolute content
Experimental: as §1

With `O=P([O-])([O-])O.[Ca+2]` [Dicalcium phosphate, anhydrate] as the molecule, how does the “Dig. Coeff. for pigs Average” value (pigs) read?
Its value is 0.64.

With Dicalcium phosphate, dihydrate as the molecule, how does the “Dig. Coeff. for pigs Average” value (pigs) read?
Its value is 0.70.

What does the source list for “hydroxyl apatite [Hydroxyl apatite (ref)]”?
% P water sol. [1]: <0.1%; % Ca water sol. [2]: <0.1%
